Measured values: patent US5750530A, “Pharmaceutical diketopiperazine compounds” (Xenova Limited, priority 1994, dated 1998)
Structures can show the parent of a compound that is named as a salt.

Biological target: PAI-1 (Homo sapiens, UniProt P05121)
Test: biochemical
Format: biochemical
Details: for IC50: PAI chromogenic substrate assay
Experimental: The present compounds have been tested in a PAI functional assay. In this assay, a compound is incubated with PAI-1 prior to addition to the tPA assay system. Inhibition of PAI-1 results in the production of plasmin from plasminogen. In turn, plasmin cleaves the chromogenic substrate S2251 (Kabi Vitrum) producing pNA (p-nitroaniline) which is detected spectrophotometrically at 405 nm (K. Nilsson et al, Fibrinolysis (1987) 1, 163-168).
The present compounds were tested in a PAI chromogenic substrate assay. In the assay (K. Nilsson, Fibrinolysis (1987) 1, 163-168) each compound was incubated with PAI-1 prior to addition to the tPA assay system. […] In turn, the plasmin cleaved the chromogenic substrate S2251 (Kabi-Vitrum) producing pNA (p-nitroaniline) which was detected spectrophotometrically at 405 nm.
The degrees of inhibition observed in the chromogenic substrate assay at various concentrations, or the IC50 values, for each compound are presented in Table 1.

Sequence of PAI-1 (P05121 24-402): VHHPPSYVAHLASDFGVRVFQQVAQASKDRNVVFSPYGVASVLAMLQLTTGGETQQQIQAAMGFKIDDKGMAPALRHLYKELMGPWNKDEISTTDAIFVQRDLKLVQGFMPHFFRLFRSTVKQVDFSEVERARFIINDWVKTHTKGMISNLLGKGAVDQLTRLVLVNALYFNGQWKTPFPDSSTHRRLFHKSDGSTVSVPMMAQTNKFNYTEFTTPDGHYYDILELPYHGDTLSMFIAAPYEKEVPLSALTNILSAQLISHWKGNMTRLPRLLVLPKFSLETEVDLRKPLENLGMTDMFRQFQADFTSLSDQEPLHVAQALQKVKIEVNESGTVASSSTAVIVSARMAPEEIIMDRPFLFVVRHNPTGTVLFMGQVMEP

## CN(C)CCSc1ccc(/C=c2\[nH]c(=O)/c(=C/c3ccc(C(C)(C)C)cc3)[nH]c2=O)cc1 [Compound 5440.HCl, (3Z,6Z)-3-(4-(2-Dimethylaminoethylthio)benzylidene)-6-(4-tert-butylbenzylidene)-2,5-piperazinedione]
5 μm
  % Inhibition: 20%
20 μm
  % Inhibition: 36%

## CC(C)/C=c1\[nH]c(=O)/c(=C/c2ccc(SCCN(C)C)s2)[nH]c1=O [Compound 5448, (3Z,6Z)-3-(5-(2-Dimethylaminoethylthio)-2-thienyl)methylene-6-(2-methylpropylidene)-2,5-piperazinedione]
5 μm
  % Inhibition: 0%
20 μm
  % Inhibition: 0%

## CN(C)CCSc1ccc(/C=c2\[nH]c(=O)/c(=C/C3CCCCC3)[nH]c2=O)s1 [Compound 5454, (3Z,6Z)-6-Cyclohexylmethylene-3-(5-(2-dimethylaminoethylthio)-2-thienyl)methylene-2,5-piperazinedione]
5 μm
  % Inhibition: 47%
20 μm
  % Inhibition: 75%
  IC50: 5.5 µM

## CN(C)CCSc1ccc(/C=c2\[nH]c(=O)/c(=C/C3CCCCC3)[nH]c2=O)s1 [Compound 5454.HCl, (3Z,6Z)-6-Cyclohexylmethylene-3-(5-(2-dimethylaminoethylthio)-2-thienyl)methylene-2,5-piperazinedione]
5 μm
  % Inhibition: 25%
20 μm
  % Inhibition: 69%
  IC50: 5.3 µM

## CN(C)CCSc1ccc(/C=c2\[nH]c(=O)/c(=C/CC3CCCC(C)(C)C3)[nH]c2=O)s1 (centres unmarked) [Compound 5455, (3Z,6Z)-3-(5-(2-Dimethylaminoethylthio)-2-thienyl)methylene-6-(2-(3,3-dimethylcyclohexyl)ethylidene)-2,5-piperazinedione]
5 μm
  % Inhibition: 30%
20 μm
  % Inhibition: 59%
  IC50: 6.5 µM

## Cc1ccc(/C=c2\[nH]c(=O)/c(=C/c3ccc(SCCN(C)C)s3)[nH]c2=O)cc1 [Compound 5460, (3Z,6Z)-3-(5-(2-Dimethylaminoethylthio)-2-thienyl)methylene-6-(4-methylbenzylidene)-2,5-piperazinedione]
5 μm
  % Inhibition: 34%
20 μm
  % Inhibition: 83%
  IC50: 12.2 µM

## Cc1ccc(/C=c2\[nH]c(=O)/c(=C/c3ccc(SCCN(C)C)s3)[nH]c2=O)cc1 [Compound 5460.HCl, (3Z,6Z)-3-(5-(2-Dimethylaminoethylthio)-2-thienyl)methylene-6-(4-methylbenzylidene)-2,5-piperazinedione]
5 μm
  % Inhibition: 31%
20 μm
  % Inhibition: 78%
  IC50: 12.6 µM

## CN(C)CCSc1ccc(/C=c2\[nH]c(=O)/c(=C/c3ccc([N+](=O)[O-])cc3)[nH]c2=O)cc1 [Compound 5461, (3Z,6Z)-3-(4-(2-Dimethylaminoethylthio)benzylidene)-6-(4-nitrobenzylidene)-2,5-piperazinedione]
5 μm
  % Inhibition: 1%
20 μm
  % Inhibition: 44%

## CN(C)CCSc1ccc(/C=c2\[nH]c(=O)/c(=C/c3ccc([N+](=O)[O-])cc3)[nH]c2=O)cc1 [Compound 5461.HCl, (3Z,6Z)-3-(4-(2-Dimethylaminoethylthio)benzylidene)-6-(4-nitrobenzylidene)-2,5-piperazinedione]
5 μm
  % Inhibition: 10%
20 μm
  % Inhibition: 56%

## CN(C)CCSc1ccc(/C=c2\[nH]c(=O)/c(=C/c3ccc(C#N)cc3)[nH]c2=O)cc1 [Compound 5462, (3Z,6Z)-3-(4-Cyanobenzylidene)-6-(4-(2-dimethylaminoethylthio)benzylidene)-2,5-piperazinedione]
5 μm
  % Inhibition: 41%
20 μm
  % Inhibition: 43%

## CN(C)CCSc1ccc(/C=c2\[nH]c(=O)/c(=C/c3ccc(C#N)cc3)[nH]c2=O)cc1 [Compound 5462.HCl, (3Z,6Z)-3-(4-Cyanobenzylidene)-6-(4-(2-dimethylaminoethylthio)benzylidene)-2,5-piperazinedione]
5 μm
  % Inhibition: 45%
20 μm
  % Inhibition: 41%

## Cc1ccc(/C=c2\[nH]c(=O)/c(=C/c3ccc(SCCN(C)C)cc3)[nH]c2=O)cc1 [Compound 5463, (3Z,6Z)-3-(4-(2-Dimethylaminoethylthio)benzylidene)-6-(4-methylbenzylidene)-2,5-piperazinedione]
5 μm
  % Inhibition: 76%
20 μm
  % Inhibition: 78%
  IC50: 4 µM

## Cc1ccc(/C=c2\[nH]c(=O)/c(=C/c3ccc(SCCN(C)C)cc3)[nH]c2=O)cc1 [Compound 5463.HCl, (3Z,6Z)-3-(4-(2-Dimethylaminoethylthio)benzylidene)-6-(4-methylbenzylidene)-2,5-piperazinedione]
5 μm
  % Inhibition: 78%
20 μm
  % Inhibition: 80%
  IC50: 3.1 µM

## COc1ccc(/C=c2\[nH]c(=O)/c(=C/c3ccc(SCCN(C)C)s3)[nH]c2=O)cc1 [Compound 5464, (3Z,6Z)-3-(5-(2-Dimethylaminoethylthio)-2-thienyl)methylene-6-(4-methoxybenzylidene)-2,5-piperazinedione]
5 μm
  % Inhibition: 19%
20 μm
  % Inhibition: 58%
  IC50: 10.5 µM

## COc1ccc(/C=c2\[nH]c(=O)/c(=C/c3ccc(SCCN(C)C)s3)[nH]c2=O)cc1 [Compound 5464.HCl, (3Z,6Z)-3-(5-(2-Dimethylaminoethylthio)-2-thienyl)methylene-6-(4-methoxybenzylidene)-2,5-piperazinedione]
5 μm
  % Inhibition: 17%
20 μm
  % Inhibition: 61%
  IC50: 11.2 µM

## CN(C)CCSc1ccc(/C=c2\[nH]c(=O)/c(=C/c3ccc(Cl)c(Cl)c3)[nH]c2=O)cc1 [Compound 5465, (3Z,6Z)-3-(3,4-Dichlorobenzylidene)-6-(4-(2-dimethylaminoethylthio)benzylidene)-2,5-piperazinedione]
5 μm
  % Inhibition: 32%
20 μm
  % Inhibition: 73%
  IC50: 3.6 µM

## CN(C)CCSc1ccc(/C=c2\[nH]c(=O)/c(=C/c3ccc(Cl)c(Cl)c3)[nH]c2=O)cc1 [Compound 5465.HCl, (3Z,6Z)-3-(3,4-Dichlorobenzylidene)-6-(4-(2-dimethylaminoethylthio)benzylidene)-2,5-piperazinedione]
5 μm
  % Inhibition: 42%
20 μm
  % Inhibition: 76%
  IC50: 2.6 µM

## CN(C)CCSc1ccc(/C=c2\[nH]c(=O)/c(=C/c3cccnc3)[nH]c2=O)s1 [Compound 5470, (3Z,6Z)-6-(5-(2-Dimethylaminoethylthio)-2-thienyl)methylene-3-(3-pyridylmethylene)-2,5-piperazinedione]
5 μm
  % Inhibition: 1%
20 μm
  % Inhibition: 0%

## CN(C)CCSc1ccc(/C=c2\[nH]c(=O)/c(=C/c3cccnc3)[nH]c2=O)s1 [Compound 5470.HCl, (3Z,6Z)-6-(5-(2-Dimethylaminoethylthio)-2-thienyl)methylene-3-(3-pyridylmethylene)-2,5-piperazinedione]
5 μm
  % Inhibition: 1%
20 μm
  % Inhibition: 1%

## CN(C)CCSc1ccc(/C=c2\[nH]c(=O)/c(=C/c3ccccn3)[nH]c2=O)s1 [Compound 5471, (3Z,6Z)-6-(5-(2-Dimethylaminoethylthio)-2-thienyl)methylene-3-(2-pyridylmethylene)-2,5-piperazinedione]
5 μm
  % Inhibition: 0%
20 μm
  % Inhibition: 1%

## CN(C)CCSc1ccc(/C=c2\[nH]c(=O)/c(=C/c3ccccn3)[nH]c2=O)s1 [Compound 5471.HCl, (3Z,6Z)-6-(5-(2-Dimethylaminoethylthio)-2-thienyl)methylene-3-(2-pyridylmethylene)-2,5-piperazinedione]
5 μm
  % Inhibition: 1%
20 μm
  % Inhibition: 2%

## CN(C)CCSc1ccc(/C=c2\[nH]c(=O)/c(=C/c3ccncc3)[nH]c2=O)s1 [Compound 5472, (3Z,6Z)-6-(5-(2-Dimethylaminoethylthio)-2-thienyl)methylene-3-(4-pyridylmethylene)-2,5-piperazinedione]
5 μm
  % Inhibition: 0%
20 μm
  % Inhibition: 22%

## CN(C)CCSc1ccc(/C=c2\[nH]c(=O)/c(=C/c3cn(C)c4ccccc34)[nH]c2=O)s1 [Compound 5473, (3Z,6Z)-6-(5-(2-Dimethylaminoethylthio)-2-thienyl)methylene-3-(1-methyl-3-indolyl)methylene-2,5-piperazinedione]
5 μm
  % Inhibition: 25%
20 μm
  % Inhibition: 61%
  IC50: 13.8 µM

## CN(C)CCSc1ccc(/C=c2\[nH]c(=O)/c(=C/c3cn(C)c4ccccc34)[nH]c2=O)s1 [Compound 5473.HCl, (3Z,6Z)-6-(5-(2-Dimethylaminoethylthio)-2-thienyl)methylene-3-(1-methyl-3-indolyl)methylene-2,5-piperazinedione]
5 μm
  % Inhibition: 10%
20 μm
  % Inhibition: 54%
  IC50: 20 µM

## CN(C)CCSc1ccc(/C=c2\[nH]c(=O)/c(=C/c3cccc(C#N)c3)[nH]c2=O)cc1 [Compound 5476, (3Z,6Z)-3-(3-Cyanobenzylidene)-6-(4-(2-dimethylaminoethylthio)benzylidene)-2,5-piperazinedione]
5 μm
  % Inhibition: 21%
20 μm
  % Inhibition: 38%

## CN(C)CCSc1ccc(/C=c2\[nH]c(=O)/c(=C/c3cccc(C#N)c3)[nH]c2=O)cc1 [Compound 5476.HCl, (3Z,6Z)-3-(3-Cyanobenzylidene)-6-(4-(2-dimethylaminoethylthio)benzylidene)-2,5-piperazinedione]
5 μm
  % Inhibition: 11%
20 μm
  % Inhibition: 34%

## COC(=O)c1ccc(/C=c2\[nH]c(=O)/c(=C/c3ccc(SCCN(C)C)s3)[nH]c2=O)cc1 [Compound 5477, (3Z,6Z)-3-(5-(2-Dimethylaminoethylthio)-2-thienyl)methylene-6-(4-methoxycarbonylbenzylidene)-2,5-piperazinedione]
5 μm
  % Inhibition: 10%
20 μm
  % Inhibition: 59%
  IC50: 20 µM
